Columns and labels:
[1] = test system: mouse embryonic fibroblasts (MEF); assay: Cell viability, IR-SC vs NC, mouse embryonic fibroblasts; assay type: cell-based; details: increasing concentrations, 72 h
Procedure: Human WI-38 fibroblasts (WI38 cells, #CCL-75™), human IMR-90 fibroblasts (IMR90 cells, #CCL-186™), human renal epithelial cells (REC cells, #PCS-400-012™) were obtained from ACTT (Manassas, Va., USA). Mouse embryonic fibroblasts (MEF) were isolated from mouse embryos as described^1. All cells were cultured in a complete medium (CM) (Dulbecco's Modified Eagle Medium supplemented with 10% fetal bovine serum [FBS], 100 U/ml penicillin, and 100 μg/ml streptomycin [all from Atlanta Biologicals, Norcross, Ga., and USA]) in a humidified incubator at 37° C. and 5% CO2. Low passages of WI-38 cells (<25), IMR-90 (<25), REC cells (<25) and MEF (<3) were used as non-senescent controls or for induction of senescence to avoid replicative senescence. To induce replicative senescence, WI-38 cells were subcultivated until cell division ceased after about 38 passages or 60 population doublings (FIG. 5)^2. […]
Flow cytometry: Non-senescent and senescent cells were seeded into wells of 24- or 48-well at about 70% of confluence. […] Viable cells (PI^− cells) were numerated by flow cytometry at a constant flow rate and calculated as a percentage of control cells treated with vehicle using the formula: percentage of control=(Ndrug/NC)×100, where Ndrug and NC represent the absolute number of PI^− viable cells of drug-treated and vehicle-treated cells, respectively.

[2] = test system: IL-1α, TNFα, CCL-5, CXCL-10 mRNA; assay: SASP mRNA levels in lungs of TBI p16-3MR mice (qRT-PCR); assay type: in vivo, mouse; details: 6 Gy TBI; 2 treatment cycles
Procedure: To measure p21 and GAPDH mRNA levels in WI-38 cells and IL-1α, TNFα, CCL-5, and CXCL-10 mRNA levels in mouse tissues, SYBR assay kit was used (Applied biosystems in life technologies). Briefly, 1 μl cDNA was mixed with 7.5 μl SYBR Green PCR Master Mix and 0.2 μl of primers (Table 5). Samples were then added with 6.30 μl of H2O to give a total 15 μl of mixture. qPCR conditions were as follows: 95° C. for 10 min, 40×(95° C. for 15 s and 60° C. for 1 min), 95° C. for […], 95° C. for 15 min. All reactions were run in triplicate on an ABI StepOnePlus Real-Time PCR System.

[3] = test system: IR-induced senescent WI-38 cells (SC); assay: Cell viability (PI flow cytometry), LD50 in IR-induced senescent WI-38 cells; assay type: cell-based, human
Procedure: Mouse embryonic fibroblasts (MEF) were isolated from mouse embryos as described^1. All cells were cultured in a complete medium (CM) (Dulbecco's Modified Eagle Medium supplemented with 10% fetal bovine serum [FBS], 100 U/ml penicillin, and 100 μg/ml streptomycin [all from Atlanta Biologicals, Norcross, Ga., and USA]) in a humidified incubator at 37° C. and 5% CO2. Low passages of WI-38 cells (<25), IMR-90 (<25), REC cells (<25) and MEF (<3) were used as non-senescent controls or for induction of senescence to avoid replicative senescence. […] To induce senescence by expression of oncogenic Ras (Ras^V12), WI-38 cells were infected with the retroviruses pBabe-H-Ras or pBabe-puro (control) (Addgene, Cambridge, Mass., UAS)^2, 3. […] Senescent cells were maintained in culture for a few days, changing the culture medium every 3 days until use. For in vitro cell culture experiments, we usually repeated the experiments for at least three times to ensure the reproducibility of the data. In addition, the repeats of the experiments for three times will allow us to obtain 3 independent observations for statistical analysis.
Flow cytometry: Non-senescent and senescent cells were seeded into wells of 24- or 48-well at about 70% of confluence. […] Both quiescent non-senescent cells and permanently growth arrested senescent cells were treated with vehicle (0.1% DMSO or PBS) or increasing concentrations of the compounds listed in Table 1 for various durations. […] After incubated with propidium iodide (PI 100 ng/ml) in PBS at room temperature for 1 min, cells were centrifuged at 1200 rpm for 6 min and then resuspended in PBS with 2% of FBS for analysis by a BD LSR II flow cytometer (BD Biosciences, San Jose, Calif., USA). Viable cells (PI^− cells) were numerated by flow cytometry at a constant flow rate and calculated as a percentage of control cells treated with vehicle using the formula: percentage of control=(Ndrug/NC)×100, where Ndrug and NC represent the absolute number of PI^− viable cells of drug-treated and vehicle-treated cells, respectively.
MTT (3-[4,5-dimethylthiazol-2-yl]-2,5 diphenyl tetrazolium bromide) assay: Cells were harvested, washed and resuspended in CM and added to wells of 24- or 48-well plates as described above. […] After 4 h at 37° C., the formazan was solubilized by lysing the cells with 300 μl of DMSO. Absorbance of formazan was measured at 595 nm using a Microplate Reader (BioTek, Winooski, Vt., USA). Cell viability was calculated in the method as previously described^4.
Trypan blue exclusion assay: Cells were harvested, washed and resuspended in CM and added to wells of a 6-well plate as described above. […] Living cells stained negative for trypan blue and were counted under light microscopy.
Briefly, Probit (set as y) was determined by looking up their correspondence to the % responded in Finney's table. The log of the compound concentrations was used as x. By fitting a line of regression, we produce the formula y=ax+b.

With CC1(C)CCC(c2ccc(Cl)cc2)=C(CN2CCN(c3ccc(C(=O)NS(=O)(=O)c4ccc(N[C@H](CCN5CCOCC5)CSc5ccccc5)c(S(=O)(=O)C(F)(F)F)c4)cc3)CC2)C1 [ABT263, navitoclax] the “viable cells, IR-SC vs NC” value [1] was “kills IR-induced senescent cells (IR-SC) but not non-senescent cells (NC)”, the SASP in lungs [2] was “suppressed the SASP induced by TBI” and the IC50 ([3]; Homo sapiens, WI-38 fibroblasts, IR-induced senescent, LD50 by Probit Analysis, read-out: LD50 (μM) for senescent cells (SC)) was 0.61 µM. For the same molecule, the “LD50” value ([3]; Table 2, IR-SC WI38 cells) was 0.61 µM, the “viable cells by MTT assay and trypan blue exclusion test” value ([3]; senescent WI-38, increasing concentrations, 72 h) was “can dose-dependently kill senescent WI-38 fibroblasts” and the SCs killed ([3]; ~24 h, 1.25 μM ABT263, IR-SC WI-38) was 70-80%.

— patent publication US11331328B2, “Compositions and methods for inhibiting antiapoptotic Bcl-2 proteins as anti-aging agents” (priority 2014, dated 2022)
